According to ChEMBL document CHEMBL5316357, “Discovery of Linvencorvir (RG7907), a Hepatitis B Virus Core Protein Allosteric Modulator, for the Treatment of Chronic HBV Infection” (J Med Chem, 2023):

Experiments:
[1] = AUClast in female cynomolgus monkey at 30 mg/kg,po by LC-MS/MS analysis; format: ADME, organism-based, Macaca fascicularis; design: dose 30 mg/kg, route po; conditions: in vivo
[2] = Tmax in female minipig at 10 mg/kg,po by LC-MS/MS analysis; format: ADME, organism-based, Sus scrofa domesticus; conditions: pig, in vivo
Cytochrome P450 2C9 = Cytochrome P450 2C9 (Homo sapiens, UniProt P11712); assay: Inhibition of CYP2C9 (unknown origin); format: ADME
[3] = Half life in Wistar Han rat at 2 mg/kg,iv by LC-MS/MS analysis; format: ADME, organism-based; conditions: in vivo
[4] = Clearance in rat plasma at 1 mg/kg,iv; format: ADME, organism-based
[5] = Tmax in male Wistar Han rat at 10 mg/kg,po by LC-MS/MS analysis; format: ADME, organism-based; conditions: in vivo
[6] = Cmax in male minipig at 10 mg/kg,po by LC-MS/MS analysis; format: ADME, organism-based, Sus scrofa domesticus; design: dose 10 mg/kg, route po; conditions: pig, in vivo
[7] = Cmax in male Wistar Han rat at 3 mg/kg,po by LC-MS/MS analysis; format: ADME, organism-based; design: dose 3 mg/kg, route po; conditions: in vivo
[8] = Cmax in male minipig at 30 mg/kg,po by LC-MS/MS analysis; format: ADME, organism-based, Sus scrofa domesticus; design: dose 30 mg/kg, route po; conditions: pig, in vivo
[9] = Oral bioavailability in female Wistar Han rat at 3 mg/kg by LC-MS/MS analysis; format: ADME, organism-based; conditions: in vivo
[10] = Tmax in female Wistar Han rat at 10 mg/kg,po by LC-MS/MS analysis; format: ADME, organism-based; conditions: in vivo
[11] = Cmax in female cynomolgus monkey at 10 mg/kg,po by LC-MS/MS analysis; format: ADME, organism-based, Macaca fascicularis; design: dose 10 mg/kg, route po; conditions: in vivo
[12] = Half life in female cynomolgus monkey at 30 mg/kg,po by LC-MS/MS analysis; format: ADME, organism-based, Macaca fascicularis; conditions: in vivo
[13] = Toxicity in minipig assessed as NOAEL administrated upto 28 days; design: species or system Sus scrofa domesticus; conditions: pig, in vivo; time < 28 day
Cytochrome P450 1A2 = biological target: T1, Cytochrome P450 1A2 (Homo sapiens, UniProt P05177); assay: Inhibition of CYP1A2 (unknown origin); format: ADME
T1 sequence (P05177 whole entry): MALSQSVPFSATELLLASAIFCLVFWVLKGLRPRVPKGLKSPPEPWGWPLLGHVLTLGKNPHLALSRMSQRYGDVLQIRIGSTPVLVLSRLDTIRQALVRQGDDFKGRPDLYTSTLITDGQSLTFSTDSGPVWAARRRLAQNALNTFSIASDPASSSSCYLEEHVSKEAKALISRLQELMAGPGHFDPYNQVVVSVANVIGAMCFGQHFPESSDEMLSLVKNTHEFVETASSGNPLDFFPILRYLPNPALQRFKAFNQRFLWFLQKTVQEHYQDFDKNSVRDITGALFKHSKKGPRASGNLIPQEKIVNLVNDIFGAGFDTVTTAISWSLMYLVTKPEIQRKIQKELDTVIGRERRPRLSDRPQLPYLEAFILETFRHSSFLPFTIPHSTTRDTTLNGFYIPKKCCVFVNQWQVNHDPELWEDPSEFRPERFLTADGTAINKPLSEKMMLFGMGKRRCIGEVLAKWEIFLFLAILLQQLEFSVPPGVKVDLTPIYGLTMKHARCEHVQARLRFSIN

[14] = Half life in minipig at 2 mg/kg,iv by LC-MS/MS analysis; format: ADME, organism-based, Sus scrofa domesticus; conditions: pig, in vivo
[15] = Half life in female cynomolgus monkey at 10 mg/kg,po by LC-MS/MS analysis; format: ADME, organism-based, Macaca fascicularis; conditions: in vivo
[16] = Oral bioavailability in mouse plasma at 3 mg/kg; format: ADME, organism-based; conditions: in vivo
[17] = Tmax in male cynomolgus monkey at 30 mg/kg,po by LC-MS/MS analysis; format: ADME, organism-based, Macaca fascicularis; conditions: in vivo
[18] = AUClast in female minipig at 30 mg/kg,po by LC-MS/MS analysis; format: ADME, organism-based, Sus scrofa domesticus; design: dose 30 mg/kg, route po; conditions: pig, in vivo
[19] = Half life in mouse plasma at 1 mg/kg,iv; format: ADME, organism-based
[20] = Toxicity in rat assessed as NOAEL administrated upto 28 days; conditions: in vivo, time < 28 day
[21] = Half life in male cynomolgus monkey at 30 mg/kg,po by LC-MS/MS analysis; format: ADME, organism-based, Macaca fascicularis; conditions: in vivo
[22] = Volume of distribution at steady state in mouse plasma at 1 mg/kg,iv; format: ADME, organism-based; conditions: read-out: Vdss
[23] = Oral bioavailability in male minipig at 10 mg/kg by LC-MS/MS analysis; format: ADME, organism-based, Sus scrofa domesticus; conditions: pig, in vivo
[24] = AUC (0-infinity) in mouse plasma at 3 mg/kg,po; format: ADME, organism-based; design: dose 3 mg/kg, route po; conditions: in vivo
[25] = Oral bioavailability in female cynomolgus monkey at 10 mg/kg by LC-MS/MS analysis; format: ADME, organism-based, Macaca fascicularis; conditions: in vivo
[26] = Cmax in male cynomolgus monkey at 30 mg/kg,po by LC-MS/MS analysis; format: ADME, organism-based, Macaca fascicularis; design: dose 30 mg/kg, route po; conditions: in vivo
[27] = Cmax in female Wistar Han rat at 10 mg/kg,po by LC-MS/MS analysis; format: ADME, organism-based; design: dose 10 mg/kg, route po; conditions: in vivo
[28] = Tmax in female Wistar Han rat at 3 mg/kg,po by LC-MS/MS analysis; format: ADME, organism-based; conditions: in vivo
[29] = AUClast in female Wistar Han rat at 3 mg/kg,po by LC-MS/MS analysis; format: ADME, organism-based; design: dose 3 mg/kg, route po; conditions: in vivo
[30] = Oral bioavailability in male cynomolgus monkey at 30 mg/kg by LC-MS/MS analysis; format: ADME, organism-based, Macaca fascicularis; conditions: in vivo
[31] = Cmax in male cynomolgus monkey at 3 mg/kg,po by LC-MS/MS analysis; format: ADME, organism-based, Macaca fascicularis; design: dose 3 mg/kg, route po; conditions: in vivo
[32] = Cmax in male Wistar Han rat at 30 mg/kg,po by LC-MS/MS analysis; format: ADME, organism-based; design: dose 30 mg/kg, route po; conditions: in vivo
[33] = Clearance in minipig at 2 mg/kg,iv by LC-MS/MS analysis; format: ADME, organism-based, Sus scrofa domesticus; conditions: pig, in vivo
[34] = AUClast in female cynomolgus monkey at 3 mg/kg,po by LC-MS/MS analysis; format: ADME, organism-based, Macaca fascicularis; design: dose 3 mg/kg, route po; conditions: in vivo
[35] = Oral bioavailability in male Wistar Han rat at 3 mg/kg by LC-MS/MS analysis; format: ADME, organism-based; conditions: in vivo
[36] = Half life in male minipig at 3 mg/kg,po by LC-MS/MS analysis; format: ADME, organism-based, Sus scrofa domesticus; conditions: pig, in vivo
[37] = Cmax in female Wistar Han rat at 3 mg/kg,po by LC-MS/MS analysis; format: ADME, organism-based; design: dose 3 mg/kg, route po; conditions: in vivo
[38] = AUClast in minipig at 2 mg/kg,iv by LC-MS/MS analysis; format: ADME, organism-based, Sus scrofa domesticus; design: dose 2 mg/kg, route iv; conditions: pig, in vivo
[39] = Ratio of AUC (0 to infinity) in liver to plasma of mouse at 3 mg/kg,po; format: ADME, organism-based; conditions: read-out: Ratio AUC
[40] = Tmax in male minipig at 10 mg/kg,po by LC-MS/MS analysis; format: ADME, organism-based, Sus scrofa domesticus; conditions: pig, in vivo
[41] = Clearance in cynomolgus monkey at 2 mg/kg,iv by LC-MS/MS analysis; format: ADME, organism-based, Macaca fascicularis; conditions: in vivo
[42] = Oral bioavailability in female cynomolgus monkey at 30 mg/kg by LC-MS/MS analysis; format: ADME, organism-based, Macaca fascicularis; conditions: in vivo
[43] = Half life in female Wistar Han rat at 30 mg/kg,po by LC-MS/MS analysis; format: ADME, organism-based; conditions: in vivo
[44] = Oral bioavailability in female Wistar Han rat at 10 mg/kg by LC-MS/MS analysis; format: ADME, organism-based; conditions: in vivo
[45] = AUClast in female cynomolgus monkey at 10 mg/kg,po by LC-MS/MS analysis; format: ADME, organism-based, Macaca fascicularis; design: dose 10 mg/kg, route po; conditions: in vivo
[46] = Half life in female Wistar Han rat at 3 mg/kg,po by LC-MS/MS analysis; format: ADME, organism-based; conditions: in vivo
[47] = Tmax in male Wistar Han rat at 3 mg/kg,po by LC-MS/MS analysis; format: ADME, organism-based; conditions: in vivo

Chain of Cytochrome P450 2C9 (P11712 whole entry): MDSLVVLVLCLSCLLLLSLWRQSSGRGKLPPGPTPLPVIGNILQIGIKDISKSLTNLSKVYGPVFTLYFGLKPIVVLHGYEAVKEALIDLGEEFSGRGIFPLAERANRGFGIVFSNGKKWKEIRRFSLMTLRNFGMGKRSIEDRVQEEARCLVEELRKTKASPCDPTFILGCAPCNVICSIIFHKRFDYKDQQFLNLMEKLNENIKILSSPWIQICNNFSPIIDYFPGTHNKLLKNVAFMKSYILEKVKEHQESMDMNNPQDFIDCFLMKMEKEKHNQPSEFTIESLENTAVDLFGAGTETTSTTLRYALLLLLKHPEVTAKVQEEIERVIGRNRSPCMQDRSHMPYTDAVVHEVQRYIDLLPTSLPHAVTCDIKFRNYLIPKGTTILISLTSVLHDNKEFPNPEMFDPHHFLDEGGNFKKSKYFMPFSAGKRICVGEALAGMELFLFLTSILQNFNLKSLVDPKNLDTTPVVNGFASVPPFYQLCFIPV

AUC(0-t) [1]: 3150 ng·h/mL | Tmax [2]: 0.5 h | IC50 (Cytochrome P450 2C9): > 50 µM | half-life [3]: 1.46 h | clearance [4]: 30 mL/min/kg | Tmax [5]: 1.5 h | Cmax [6]: 248 ng/mL | Cmax [7]: 70.2 ng/mL | Cmax [8]: 768 ng/mL | bioavailability [9]: 14.3% | Tmax [10]: 1 h | Cmax [11]: 336 ng/mL | half-life [12]: 5.98 h | IC50 (Cytochrome P450 1A2): > 50 µM | half-life [14]: 2.19 h | half-life [15]: 8.13 h | F [16]: 33% | Tmax [17]: 2 h | AUC(0-t) [18]: 2550 ng·h/mL | half-life [19]: 0.9 h | half-life [21]: 6.12 h | Vd [22]: 1 L/kg | bioavailability [23]: 18.6% | AUC [24]: 275 ng·h/mL | bioavailability [25]: 18.2% | Cmax [26]: 2870 ng/mL | Cmax [27]: 683 ng/mL | Tmax [28]: 0.5 h | AUC(0-t) [29]: 220 ng·h/mL | bioavailability [30]: 25.8% | Cmax [31]: 64 ng/mL | Cmax [32]: 1350 ng/mL | clearance [33]: 24.1 mL/min/kg | AUC(0-t) [34]: 253 ng·h/mL | bioavailability [35]: 13.5% | half-life [36]: 9.69 h | Cmax [37]: 80.4 ng/mL | AUC(0-t) [38]: 1370 ng·h/mL | Kp [39]: 32 | Tmax [40]: 1 h | clearance [41]: 23.6 mL/min/kg | bioavailability [42]: 18.6% | half-life [43]: 1.8 h | bioavailability [44]: 36.4% | AUC(0-t) [45]: 1060 ng·h/mL | half-life [46]: 2.15 h | Tmax [47]: 0.5 h
Structure (SMILES): CCOC(=O)C1=C(CN2CCN3C(=O)N(CC(C)(C)C(=O)O)C[C@@H]3C2)NC(c2nccs2)=N[C@H]1c1cccc(F)c1C [LINVENCORVIR]
NOAEL at 672 h [13]: 350 mg/kg | NOAEL at 672 h [20]: 250 mg/kg
